{"source": "patent US20250333404A1", "about": "“DEUTERATED COMPOUNDS” (Neurocrine Biosciences, Inc., priority 2022, published 2025)", "target": "NaV1.6 (Homo sapiens (Human), UniProt Q9UQD0)", "sequence (Q9UQD0 whole entry)": "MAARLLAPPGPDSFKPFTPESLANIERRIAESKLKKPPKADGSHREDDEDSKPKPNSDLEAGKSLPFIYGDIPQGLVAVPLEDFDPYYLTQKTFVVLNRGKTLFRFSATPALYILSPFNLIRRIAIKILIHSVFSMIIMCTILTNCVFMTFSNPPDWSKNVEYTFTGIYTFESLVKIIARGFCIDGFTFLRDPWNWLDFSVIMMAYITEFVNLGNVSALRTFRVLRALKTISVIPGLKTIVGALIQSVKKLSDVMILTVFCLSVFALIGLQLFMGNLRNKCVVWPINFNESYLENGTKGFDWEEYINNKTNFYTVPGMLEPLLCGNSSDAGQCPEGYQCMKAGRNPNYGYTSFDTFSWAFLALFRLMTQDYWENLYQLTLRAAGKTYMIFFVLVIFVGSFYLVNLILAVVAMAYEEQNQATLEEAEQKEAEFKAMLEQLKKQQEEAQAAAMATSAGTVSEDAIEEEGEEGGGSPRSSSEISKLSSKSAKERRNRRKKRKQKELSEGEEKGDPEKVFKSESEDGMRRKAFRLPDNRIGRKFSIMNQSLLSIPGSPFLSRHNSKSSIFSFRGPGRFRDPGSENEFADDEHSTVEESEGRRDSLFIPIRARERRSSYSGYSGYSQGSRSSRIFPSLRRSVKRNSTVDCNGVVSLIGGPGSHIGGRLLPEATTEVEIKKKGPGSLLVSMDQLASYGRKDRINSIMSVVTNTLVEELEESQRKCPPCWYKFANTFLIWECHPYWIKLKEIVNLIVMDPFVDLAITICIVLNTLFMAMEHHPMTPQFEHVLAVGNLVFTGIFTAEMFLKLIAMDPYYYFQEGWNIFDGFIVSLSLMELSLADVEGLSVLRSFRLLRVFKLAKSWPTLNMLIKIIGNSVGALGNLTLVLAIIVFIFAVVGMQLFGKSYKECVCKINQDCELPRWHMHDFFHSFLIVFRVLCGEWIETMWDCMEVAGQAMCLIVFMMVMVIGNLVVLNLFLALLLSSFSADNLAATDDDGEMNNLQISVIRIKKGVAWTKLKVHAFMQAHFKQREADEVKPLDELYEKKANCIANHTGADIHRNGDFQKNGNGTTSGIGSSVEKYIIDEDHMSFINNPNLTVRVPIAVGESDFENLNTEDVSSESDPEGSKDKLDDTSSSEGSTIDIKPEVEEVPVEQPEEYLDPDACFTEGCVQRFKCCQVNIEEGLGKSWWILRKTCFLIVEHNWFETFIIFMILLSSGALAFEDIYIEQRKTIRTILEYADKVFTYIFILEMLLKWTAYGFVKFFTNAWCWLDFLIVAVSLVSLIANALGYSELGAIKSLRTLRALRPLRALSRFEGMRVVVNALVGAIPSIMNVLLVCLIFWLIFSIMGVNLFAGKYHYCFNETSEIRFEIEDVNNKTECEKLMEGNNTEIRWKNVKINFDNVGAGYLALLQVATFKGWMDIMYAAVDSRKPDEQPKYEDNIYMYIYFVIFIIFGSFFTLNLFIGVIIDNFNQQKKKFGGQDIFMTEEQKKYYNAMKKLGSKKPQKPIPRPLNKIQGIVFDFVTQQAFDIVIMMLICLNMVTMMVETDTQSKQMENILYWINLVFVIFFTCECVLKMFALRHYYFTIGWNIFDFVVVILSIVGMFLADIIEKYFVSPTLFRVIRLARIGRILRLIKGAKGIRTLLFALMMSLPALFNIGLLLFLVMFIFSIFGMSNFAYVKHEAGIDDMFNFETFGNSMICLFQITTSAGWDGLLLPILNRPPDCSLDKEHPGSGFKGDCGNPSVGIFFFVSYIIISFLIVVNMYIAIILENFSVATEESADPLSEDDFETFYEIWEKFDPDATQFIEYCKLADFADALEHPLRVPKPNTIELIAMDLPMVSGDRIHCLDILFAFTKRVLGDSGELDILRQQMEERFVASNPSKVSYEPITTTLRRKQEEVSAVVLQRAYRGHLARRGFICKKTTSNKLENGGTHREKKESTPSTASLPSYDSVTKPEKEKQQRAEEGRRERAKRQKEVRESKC", "sequence (Q07699 19-218 partner)": "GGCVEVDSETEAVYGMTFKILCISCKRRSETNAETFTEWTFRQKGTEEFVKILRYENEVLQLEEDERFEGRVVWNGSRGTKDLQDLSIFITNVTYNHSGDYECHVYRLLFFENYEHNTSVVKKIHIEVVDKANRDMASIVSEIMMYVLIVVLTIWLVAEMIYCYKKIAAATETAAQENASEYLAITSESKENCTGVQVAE", "assay": "Sodium influx assay (ANG2 dye), NaV1.6", "format": "cell-based", "settings": "Trex HEK293 cells, human α-subunit + β1-subunit; inactivated state; read-out: Flux NaV1.6 IC50", "data": [{"molecule": "Cc1cc(S(=O)(=O)Nc2cscn2)c(F)cc1N(C)[C@H]1CCN(Cc2ccccc2)C1", "note": "[Compound 1, (S)-4-((1-benzylpyrrolidin-3-yl)(methyl)amino)-2-fluoro-5-methyl-N-(thiazol-4-yl)benzenesulfonamide]", "values": [{"measurement": "IC50", "result": 0.272, "unit": "µM"}]}]}
